{"source": "patent US20250082781A1", "about": "“METHODS OF LOWERING BLOOD GLUCOSE AND TREATING TYPE 2 DIABETES BY ACTIVATION OF PDE4D3” (Salk Institute for Biological Studies, priority 2021, published 2025)", "key": {"[1]": {"system": "hepatic gluconeogenic intermediates", "test": "Hepatic metabolite levels (targeted metabolomics, kits)", "assay_type": "in vivo, mouse", "method": "Polar metabolites were extracted and analyzed using a previously reported method (Yuan et al., 2012). Briefly, ob/ob mice were sacrificed by cervical dislocation. Liver pieces (50-100 mg) were snap frozen in liquid nitrogen. 1 ml LC-MS grade 80% methanol chilled at −80° C. was added per 100 mg tissue on dry ice. Samples were homogenized by TissueLyzer and lysates were incubated on dry ice for 30 minutes and centrifuged at 20000 g for 10 minutes. Clarified supernatants were transferred to new tubes. Pellets were extracted again and supernatants were combined. After drying the supernatant under nitrogen gas, extracts were dissolved in H2O (40 μL) and 10 μL were subjected to liquid chromatography mass spectrometry (LC-MS). Polar metabolites were measured by LC-MS using a TSQ Quantiva instrument fitted with a Luna NH2 HPLC column (5.0 μm; 4.6 mm×50 mm, Phenomenex). The following LC solvents were used: buffer A, 95:5 H2O/ACN, 20 mM ammonium hydroxide, 20 mM ammonium acetate; buffer B, 100% ACN. A typical LC run was 23 minutes long with a flow rate of 0.4 ml min-1 and consisted of the following steps: 85 to 30% buffer B over 3 minutes, 30 to 2% buffer B over 9 minutes, 2% buffer B for 3 minutes, 2 to 85% buffer B over 1 minute, and 85% buffer B for 7 minutes. MS analyses were performed using electrospray ionization (ESI) in negative or positive ion mode depending on the metabolites being analyzed. Negative mode and positive mode source parameters were the following: spray voltage 3.5 kV, ion transfer tube temperature of 325° C., and a vaporizer temperature of 275° C.\nLiver samples were prepared from HFD-fed mice as described in Pcx activity assay. After determining Pcx activity from sample homogenates, the remaining supernatant was de-proteinated by perchloric acid (PCA)-KOH method using a commercial kit. De-proteinated samples were used to quantify hepatic metabolites using the commercial kits. Hepatic metabolites concentration was normalized to protein concentration and corrected for the loss of volume due to de-proteinization."}, "[2]": {"system": "perilipin-HSL co-localization", "test": "Perilipin-GFP and HSL-mCherry co-localization in 3T3-L1 adipocytes", "assay_type": "cell-based", "method": "3T3-L1 cells were transduced with viral particles ([…]) in 24 well plates. Media was replaced after overnight incubation. 3-4 days after AAV infection, cells were treated as described for lipolysis assay. For cAMP analysis by biosensors, Downward Green cADDis cAMP Sensor (D0200G) and control mNeon Green (F0500G) produced in BacMam system was purchased from Montana Molecular. Brightfield and fluorescence images were taken every 10-20 min in I IncuCyte® Live-cell analysis system (Sartorius) and images were analyzed by IncuCyte® Analysis Software. High-resolution live cell imaging was performed with LSM 880 Airyscan microscope at 40× objective."}, "[3]": {"conditions": "livers of ob/ob mice 2 h after FGF1 injection"}}, "data": [{"substance": "FGF1: Recombinant fibroblast growth factor 1 protein, dissolved in PBS, injected subcutaneously", "values": [{"measurement": "hepatic gluconeogenic substrates", "setting": "[1]; HFD-fed adR1KO mice, 6 h after FGF1 0.5 mg/kg", "value": "insensitive to FGF1 treatment"}, {"measurement": "reductions in hepatic gluconeogenic substrates", "setting": "[1]; HFD-fed adR1WT mice, 6 h after FGF1 0.5 mg/kg", "value": "largely recapitulated"}, {"measurement": "hepatic TCA cycle metabolites", "setting": "[1]; [3]", "value": "not affected"}, {"measurement": "hepatic acetyl-CoA levels", "setting": "[1]; [3]", "value": "decreased"}, {"measurement": "hepatic intermediates downstream of pyruvate (G6P, F6P, PG, PEP, OAA)", "setting": "[1]; [3]", "value": "reduced"}, {"measurement": "isoproterenol-induced co-localization of perilipin-GFP and HSL-mCherry", "setting": "[2]; FGF1 100 ng/ml pretreatment, ISO 100 nM", "value": "reduced the isoproterenol-induced co-localization of perilipin-GFP and HSL-mCherry"}, {"measurement": "FGF1 effect on perilipin-HSL co-localization under PDE4 inhibition", "setting": "[2]; roflumilast 2 μM, PDE3 inhibition did not abrogate", "value": "abrogated the FGF1 effect"}]}]}
